In the supplement of paper PMC11061612:

Experiments:
Assay in all cases: Bliss excess, mean over the matrix (fraction); higher = more synergy
[1] = system: BALL-1 (B-Lymphoblastic Leukemia)
Outline: (§1)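 After 24 hours at 37°C and 5% CO2 in 1536-well plates, cells in DMEM/F12 or RPMI plus 10% FBS received two-drug dose matrices for 72 hours. Viability came from CellTiter-Glo 2.0 luminescence and was scaled as inhibition, anchored at 0 by vehicle wells and at 1 by blank wells. Combination Emax is taken as the second-highest inhibition in the matrix, and Bliss excess as the observed combination effect less EA + EB − EA·EB, with EA and EB the single-agent effects.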

[2] = system: AsPC-1 (Pancreatic Carcinoma)
Outline: as §1

[3] = system: NCI-H1623 (Lung Adenocarcinoma)
Outline: as §1

[4] = system: RMG-I (Ovarian Carcinoma)
Outline: as §1

KYM-1 (Rhabdomyosarcoma) = system: KYM-1 (Rhabdomyosarcoma)
Outline: as §1

[5] = system: LOUCY (T-Lymphoblastic Leukemia)
Outline: as §1

[6] = system: OV-90 (Ovarian Carcinoma)
Outline: as §1

[7] = system: RL95-2 (Endometrial Carcinoma)
Outline: as §1

[8] = system: RERF-LC-KJ (Lung Adenocarcinoma)
Outline: as §1

[9] = system: Becker (Low Grade Glioma)
Outline: as §1

[10] = system: SW684 (Other Solid Carcinomas)
Outline: as §1

[11] = system: KYSE-70 (Esophageal Squamous Cell Carcinoma)
Outline: as §1

[12] = system: HSC-3 (Oral Cavity Carcinoma)
Outline: as §1

[13] = system: PC-14 (Lung Adenocarcinoma)
Outline: as §1

CHL-1 (Melanoma) = system: CHL-1 (Melanoma)
Outline: as §1

[14] = system: COLO-684 (Endometrial Carcinoma)
Outline: as §1

[15] = system: NKM-1 (Acute Myeloid Leukemia)
Outline: as §1

[16] = system: OCI-AML5 (Acute Myeloid Leukemia)
Outline: as §1

[17] = system: NCI-H1155 (Non-Small Cell Lung Carcinoma)
Outline: as §1

[18] = system: NCI-H810 (Non-Small Cell Lung Carcinoma)
Outline: as §1

Structure (SMILES) | Bliss excess [1] | Bliss excess [2] | Bliss excess [3] | Bliss excess [4] | Bliss excess (KYM-1 (Rhabdomyosarcoma)) | Bliss excess [5] | Bliss excess [6] | Bliss excess [7] | Bliss excess [8] | Bliss excess [9] | Bliss excess [10] | Bliss excess [11] | Bliss excess [12] | Bliss excess [13] | Bliss excess (CHL-1 (Melanoma)) | Bliss excess [14] | Bliss excess [15] | Bliss excess [16] | Bliss excess [17] | Bliss excess [18]
CN(C)CCCOc1ccc(-c2ccc3ncc4c(c3c2)n(C2CCOCC2)c(=O)n4C)cn1 [AZD0156] + C=CCn1c(=O)c2cnc(Nc3ccc(N4CCN(C)CC4)cc3)nc2n1-c1cccc(C(C)(C)O)n1 [AZD1775] (first compound max 1 µM, partner max 1 µM) | 0.0118 | -0.0179 | -0.065 | -0.0545 | -0.0123 | -0.0123 | -0.0335 | -0.03 | -0.0193 | -0.0409 | -0.076 | -0.0531 | -0.0534 | -0.0209 | -0.0427 | -0.0266 | -0.0605 | -0.0359 | -0.0213 | -0.0519
CN(C)CCCOc1ccc(-c2ccc3ncc4c(c3c2)n(C2CCOCC2)c(=O)n4C)cn1 [AZD0156] + CCN(CCO)CCCOc1ccc2c(Nc3cc(CC(=O)Nc4cccc(F)c4)[nH]n3)ncnc2c1 [AZD2811] (first compound max 1 µM, 7x7, partner max 1 µM) | 0.171 | -0.0461 | -0.0321 | -0.072 | -0.0186 | -0.0646 | -0.0823 | 0.0016 | -0.004 | -0.0293 | -0.0583 | 0.0006 | -0.0087 | -0.0042 | 0.0015 | -0.0036 | -0.031 | -0.0185 | -0.0175 | 0.0302
CN(C)CCCOc1ccc(-c2ccc3ncc4c(c3c2)n(C2CCOCC2)c(=O)n4C)cn1 [AZD0156] + C[C@@H]1COCCN1C2=NC(=NC(=C2)C3(CC3)[S@](=N)(=O)C)C4=C5C=CNC5=NC=C4 [AZD6738] (first compound max 1 µM, 7x7, partner max 10 µM) | 0.0274 | -0.0184 | -0.0236 | -0.0095 | -0.0102 | 0.0196 | -0.0323 | -0.0387 | 0.0452 | -0.0248 | -0.0526 | 0.0033 | -0.0032 | 0.0043 | 0.0023 | -0.0496 | -0.11 | -0.0479 | -0.0289 | -0.0082
CN(C)CCCOc1ccc(-c2ccc3ncc4c(c3c2)n(C2CCOCC2)c(=O)n4C)cn1 [AZD0156] + O=C(c1cc(Cc2n[nH]c(=O)c3ccccc23)ccc1F)N1CCN(C(=O)C2CC2)CC1 [Olaparib] (first compound max 3 µM, partner max 3 µM) | 0.158 | 0.005 | 0.0126 | -0.0428 | 0.185 | 0.125 | 0.035 | 0.11 | -0.0459 | -0.0359 | -0.0388 | -0.0054 | 0.132 | -0.0009 | -0.0224 | 0.0274 | 0.0587 | 0.0103 | 0.103 | 0.0541
CS(=O)(=O)CCNCc1ccc(-c2ccc3ncnc(Nc4ccc(OCc5cccc(F)c5)c(Cl)c4)c3c2)o1 [Lapatinib] + NC1(c2ccc(-c3nc4ccn5c(=O)[nH]nc5c4cc3-c3ccccc3)cc2)CCC1 [MK-2206] (first compound max 10 µM, 7x7, partner max 10 µM) | – | – | – | -0.0219 | 0.0255 | -0.0343 | -0.0225 | – | – | 0.0516 | 0.0223 | 0.0087 | – | 0.0188 | 0.0221 | 0.0322 | 0.0174 | – | – | -0.0152
CCc1c2c(nc3ccc(O)cc13)-c1cc3c(c(=O)n1C2)COC(=O)[C@]3(O)CC [SN-38] + O=C(c1cc(Cc2n[nH]c(=O)c3ccccc23)ccc1F)N1CCN(C(=O)C2CC2)CC1 [Olaparib] (first compound max 0.3 µM, 7x7, partner max 10 µM) | 0.0629 | -0.0277 | – | 0.0057 | 0.0383 | 0.0204 | 0.0633 | – | – | 0.083 | -0.0048 | 0.0423 | 0.0263 | 0.0707 | 0.0683 | -0.0188 | 0.0274 | – | 0.0532 | 0.107
C[C@@H](c1ccc2nccn2c1)n1nnc2ncc(-c3cnn(C)c3)nc21 [Savolitinib] + CN(CC[C@H](CSC1=CC=CC=C1)NC2=C(C=C(C=C2)S(=O)(=O)NC(=O)C3=CC=C(C=C3)N4CCC(CC4)[C@H](C5=CC=CC=C5C6=CC=C(C=C6)Cl)O)S(=O)(=O)C(F)(F)F)CCO [AZD4320] (first compound max 1 µM, 7x7, partner max 1 µM) | -0.0078 | -0.0896 | -0.0231 | – | – | – | – | -0.0297 | -0.0454 | – | – | – | -0.0152 | 0.0011 | – | – | – | -0.0418 | -0.0513 | –
